Data: ChEMBL document CHEMBL1201862, “PubChem BioAssay data set” (2004)
One block for each molecule: values may come before it. Calls of active or inactive are those of the source.

Columns and labels:
[1] = Shn3 3'UTR reporter inhibitors, dose response, cell-based, Clone20 osteoblasts, firefly luciferase, cherry-picked (AID 624132); type: functional;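 further: firefly luciferase luminescence from reporter carrying the Shn3 3'UTR in osteoblasts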
[2] = HepG2 cell cytotoxicity, dose response, cytotoxicity control for Shn3 inhibitor project, CellTiter-Glo, cherry-picked (AID 624134); type: functional, cell-based
Paired box protein Pax-8 = Paired box protein Pax-8 (Homo sapiens, UniProt Q06710); test: inhibitors of PAX8-driven TPO luciferase reporter, dose response, RMG-I cells, cherry-pick (AID 687027); type: functional, cell-based;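 further: luciferase reporter driven by Pax8 target thyroperoxidase promoter measured by SteadyGlo luminescence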
[3] = HEK293 cell cytotoxicity, dose response, cytotoxicity control, plate reader, cherry-picked samples (AID 743446); type: functional, cell-based
[4] = control 3'UTR Renilla luciferase suppression, dose response, counter-screen for Shn3 inhibitor project, cell-based, Clone20-Shn3RL, cherry-picked (AID 624133); type: functional
[5] = HepG2 cell cytotoxicity, dose response, cytotoxicity control, plate reader, cherry-pick, antagonist series (AID 743416); type: functional, cell-based
Beta-galactosidase = Beta-galactosidase (Escherichia coli, UniProt Q8VNN2); test: beta-galactosidase enzyme inhibitors and activators, dose response, artefact control for CCR6 antagonist project, biochemical, E. coli enzyme, set 3 (AID 504712); type: functional
[6] = target: Photoreceptor-specific nuclear receptor (Homo sapiens, UniProt Q9Y5X4); type: functional, cell-based;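 further: CHO-S cells with Gal4-NCOR and VP16-NR2E3 two-hybrid luciferase reporter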
[7] = LGR2 antagonists, dose response, cell-based, HEK293, CRE-luciferase reporter, cherry pick, set 2 (AID 743343); type: functional;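 further: transfected cells were stimulated with diluted bursicon conditioned medium after compound addition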
[8] = MC4R antagonists, dose response, counter-screen for LGR2 antagonist project, cell-based, plate reader, cherry pick (AID 743444); type: functional;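 further: transfected HEK 293 cells stimulated with alpha-MSH peptide; potency of inhibitors of the alpha-MSH evoked signal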
[9] = A549 cell cytotoxicity, dose response, cytotoxicity control, plate reader, cherry-pick, antagonist series (AID 743412); type: functional, cell-based
[10] = target: T1, C-C chemokine receptor type 6 (Homo sapiens, UniProt P51684); test: CCR6 receptor antagonists, dose response, cell-based, luminescent beta-arrestin readout (AID 504728); type: functional
T1 sequence (P51684 whole entry): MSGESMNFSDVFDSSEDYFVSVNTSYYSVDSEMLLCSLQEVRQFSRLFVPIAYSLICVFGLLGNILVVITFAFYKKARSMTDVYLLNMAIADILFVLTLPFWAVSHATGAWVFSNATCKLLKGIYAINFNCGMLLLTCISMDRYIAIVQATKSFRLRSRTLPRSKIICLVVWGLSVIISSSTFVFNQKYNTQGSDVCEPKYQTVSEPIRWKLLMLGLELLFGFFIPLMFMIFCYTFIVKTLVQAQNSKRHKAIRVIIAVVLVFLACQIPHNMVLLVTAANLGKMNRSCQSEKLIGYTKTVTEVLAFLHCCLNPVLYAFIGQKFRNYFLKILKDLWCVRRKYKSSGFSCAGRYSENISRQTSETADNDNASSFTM

[11] = target: T2, Voltage-gated N-type calcium channel alpha-1B subunit/Amyloid beta A4 precursor protein-binding family A member 1 (Homo sapiens, UniProt Q00975+Q02410); type: protein assay
[12] = target: T2, Voltage-gated N-type calcium channel alpha-1B subunit/Amyloid beta A4 precursor protein-binding family A member 1; type: protein assay; remark: listed apart in the source
CAAX prenyl protease 2 = target: T3, CAAX prenyl protease 2 (Saccharomyces cerevisiae S288c, UniProt Q03530); type: biochemical
T3 sequence (Q03530 whole entry): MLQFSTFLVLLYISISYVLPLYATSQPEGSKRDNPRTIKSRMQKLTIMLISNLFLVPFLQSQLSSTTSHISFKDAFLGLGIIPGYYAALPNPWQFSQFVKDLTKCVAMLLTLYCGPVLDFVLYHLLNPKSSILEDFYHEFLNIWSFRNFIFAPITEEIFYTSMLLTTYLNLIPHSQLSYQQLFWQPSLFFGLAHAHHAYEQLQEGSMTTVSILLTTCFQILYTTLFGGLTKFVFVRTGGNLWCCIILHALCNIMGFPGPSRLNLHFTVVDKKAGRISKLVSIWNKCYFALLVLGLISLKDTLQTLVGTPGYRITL

Aminopeptidase N = target: T4, Aminopeptidase N (Plasmodium falciparum FcB1/Columbia, UniProt O96935); test: P. falciparum M1AAP inhibitors, biochemical, fluorogenic H-Leu-NHMec substrate, 1536-well (AID 1445); set-up: species or system Plasmodium falciparum 3D7, 3D7
T4 sequence (O96935 whole entry): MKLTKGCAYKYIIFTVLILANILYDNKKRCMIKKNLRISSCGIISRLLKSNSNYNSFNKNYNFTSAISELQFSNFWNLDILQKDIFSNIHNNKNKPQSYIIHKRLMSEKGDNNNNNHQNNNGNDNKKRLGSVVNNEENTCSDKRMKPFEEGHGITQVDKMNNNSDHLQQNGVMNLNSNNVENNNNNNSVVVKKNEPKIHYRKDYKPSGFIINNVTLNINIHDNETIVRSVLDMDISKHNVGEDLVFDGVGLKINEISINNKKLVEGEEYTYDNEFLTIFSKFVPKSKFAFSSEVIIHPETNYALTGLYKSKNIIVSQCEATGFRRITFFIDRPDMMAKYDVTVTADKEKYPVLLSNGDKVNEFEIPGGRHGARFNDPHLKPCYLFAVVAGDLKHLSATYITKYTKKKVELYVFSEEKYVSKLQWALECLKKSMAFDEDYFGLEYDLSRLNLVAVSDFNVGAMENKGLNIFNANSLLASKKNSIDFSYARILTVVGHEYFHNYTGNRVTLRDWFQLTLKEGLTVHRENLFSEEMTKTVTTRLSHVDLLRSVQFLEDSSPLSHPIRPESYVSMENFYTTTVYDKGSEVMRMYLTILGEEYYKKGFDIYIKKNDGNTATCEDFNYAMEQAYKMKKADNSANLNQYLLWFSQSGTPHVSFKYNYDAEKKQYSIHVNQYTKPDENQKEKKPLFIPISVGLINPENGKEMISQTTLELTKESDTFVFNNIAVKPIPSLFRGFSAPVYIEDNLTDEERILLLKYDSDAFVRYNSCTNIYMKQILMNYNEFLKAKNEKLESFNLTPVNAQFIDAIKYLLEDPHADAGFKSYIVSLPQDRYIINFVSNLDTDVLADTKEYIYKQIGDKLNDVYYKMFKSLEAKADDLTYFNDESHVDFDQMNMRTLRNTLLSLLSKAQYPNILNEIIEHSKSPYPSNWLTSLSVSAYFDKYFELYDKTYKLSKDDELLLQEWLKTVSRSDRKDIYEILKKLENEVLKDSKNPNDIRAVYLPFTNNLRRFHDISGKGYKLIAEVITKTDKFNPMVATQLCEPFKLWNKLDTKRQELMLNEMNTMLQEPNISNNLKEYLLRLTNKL

Hexokinase = target: T5, Hexokinase (Trypanosoma brucei, UniProt Q38C41); test: Confirmation assay for inhibitors of Trypanosoma brucei hexokinase 1-Analogue-first series. [Related pubchem assays (depositor defined):AID1430, AID1632, AID2516, AID2560, AID2579, AID2600, AID449725, AID492951]; type: functional
T5 sequence (Q38C41 whole entry): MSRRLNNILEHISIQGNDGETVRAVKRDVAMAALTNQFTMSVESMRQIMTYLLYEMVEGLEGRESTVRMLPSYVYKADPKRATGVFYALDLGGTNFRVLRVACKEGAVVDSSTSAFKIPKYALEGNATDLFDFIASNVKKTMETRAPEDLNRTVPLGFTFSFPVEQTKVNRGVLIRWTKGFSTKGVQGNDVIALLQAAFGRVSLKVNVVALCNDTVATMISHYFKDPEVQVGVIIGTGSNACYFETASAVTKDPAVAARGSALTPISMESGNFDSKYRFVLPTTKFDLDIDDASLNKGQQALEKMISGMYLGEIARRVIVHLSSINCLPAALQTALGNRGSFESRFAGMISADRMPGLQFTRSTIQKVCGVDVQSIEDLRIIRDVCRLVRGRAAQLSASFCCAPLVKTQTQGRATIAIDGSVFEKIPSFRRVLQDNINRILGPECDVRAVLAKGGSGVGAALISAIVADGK

Sequence of Beta-galactosidase (Q8VNN2 whole entry, the tested form may be a part): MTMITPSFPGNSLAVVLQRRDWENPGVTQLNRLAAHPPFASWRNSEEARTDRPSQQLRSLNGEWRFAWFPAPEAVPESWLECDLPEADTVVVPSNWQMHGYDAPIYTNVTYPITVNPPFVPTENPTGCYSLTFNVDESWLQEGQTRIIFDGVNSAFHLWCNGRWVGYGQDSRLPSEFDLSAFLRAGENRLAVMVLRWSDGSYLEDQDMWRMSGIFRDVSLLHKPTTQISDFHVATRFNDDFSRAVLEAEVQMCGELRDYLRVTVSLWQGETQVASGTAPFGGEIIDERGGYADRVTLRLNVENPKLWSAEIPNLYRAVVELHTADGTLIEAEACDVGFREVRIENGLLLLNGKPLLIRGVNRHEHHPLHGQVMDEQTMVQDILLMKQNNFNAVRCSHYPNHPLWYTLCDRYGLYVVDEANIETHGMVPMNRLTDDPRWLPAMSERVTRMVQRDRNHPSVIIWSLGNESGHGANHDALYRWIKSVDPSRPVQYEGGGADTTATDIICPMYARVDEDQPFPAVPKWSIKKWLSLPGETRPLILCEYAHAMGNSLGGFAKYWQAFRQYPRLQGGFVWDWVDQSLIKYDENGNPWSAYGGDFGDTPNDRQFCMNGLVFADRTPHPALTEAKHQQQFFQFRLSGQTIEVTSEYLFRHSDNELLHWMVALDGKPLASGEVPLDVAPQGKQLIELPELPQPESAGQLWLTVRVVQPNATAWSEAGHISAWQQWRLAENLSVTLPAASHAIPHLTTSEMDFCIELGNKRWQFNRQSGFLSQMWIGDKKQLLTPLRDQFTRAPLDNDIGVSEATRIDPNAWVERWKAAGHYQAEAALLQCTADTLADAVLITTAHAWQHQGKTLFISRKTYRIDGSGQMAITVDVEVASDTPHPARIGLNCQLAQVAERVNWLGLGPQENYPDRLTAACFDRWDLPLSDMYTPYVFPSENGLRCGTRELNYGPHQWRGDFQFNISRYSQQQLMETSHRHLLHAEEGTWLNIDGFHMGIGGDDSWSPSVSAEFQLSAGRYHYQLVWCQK
T2 sequence (Q00975 whole entry): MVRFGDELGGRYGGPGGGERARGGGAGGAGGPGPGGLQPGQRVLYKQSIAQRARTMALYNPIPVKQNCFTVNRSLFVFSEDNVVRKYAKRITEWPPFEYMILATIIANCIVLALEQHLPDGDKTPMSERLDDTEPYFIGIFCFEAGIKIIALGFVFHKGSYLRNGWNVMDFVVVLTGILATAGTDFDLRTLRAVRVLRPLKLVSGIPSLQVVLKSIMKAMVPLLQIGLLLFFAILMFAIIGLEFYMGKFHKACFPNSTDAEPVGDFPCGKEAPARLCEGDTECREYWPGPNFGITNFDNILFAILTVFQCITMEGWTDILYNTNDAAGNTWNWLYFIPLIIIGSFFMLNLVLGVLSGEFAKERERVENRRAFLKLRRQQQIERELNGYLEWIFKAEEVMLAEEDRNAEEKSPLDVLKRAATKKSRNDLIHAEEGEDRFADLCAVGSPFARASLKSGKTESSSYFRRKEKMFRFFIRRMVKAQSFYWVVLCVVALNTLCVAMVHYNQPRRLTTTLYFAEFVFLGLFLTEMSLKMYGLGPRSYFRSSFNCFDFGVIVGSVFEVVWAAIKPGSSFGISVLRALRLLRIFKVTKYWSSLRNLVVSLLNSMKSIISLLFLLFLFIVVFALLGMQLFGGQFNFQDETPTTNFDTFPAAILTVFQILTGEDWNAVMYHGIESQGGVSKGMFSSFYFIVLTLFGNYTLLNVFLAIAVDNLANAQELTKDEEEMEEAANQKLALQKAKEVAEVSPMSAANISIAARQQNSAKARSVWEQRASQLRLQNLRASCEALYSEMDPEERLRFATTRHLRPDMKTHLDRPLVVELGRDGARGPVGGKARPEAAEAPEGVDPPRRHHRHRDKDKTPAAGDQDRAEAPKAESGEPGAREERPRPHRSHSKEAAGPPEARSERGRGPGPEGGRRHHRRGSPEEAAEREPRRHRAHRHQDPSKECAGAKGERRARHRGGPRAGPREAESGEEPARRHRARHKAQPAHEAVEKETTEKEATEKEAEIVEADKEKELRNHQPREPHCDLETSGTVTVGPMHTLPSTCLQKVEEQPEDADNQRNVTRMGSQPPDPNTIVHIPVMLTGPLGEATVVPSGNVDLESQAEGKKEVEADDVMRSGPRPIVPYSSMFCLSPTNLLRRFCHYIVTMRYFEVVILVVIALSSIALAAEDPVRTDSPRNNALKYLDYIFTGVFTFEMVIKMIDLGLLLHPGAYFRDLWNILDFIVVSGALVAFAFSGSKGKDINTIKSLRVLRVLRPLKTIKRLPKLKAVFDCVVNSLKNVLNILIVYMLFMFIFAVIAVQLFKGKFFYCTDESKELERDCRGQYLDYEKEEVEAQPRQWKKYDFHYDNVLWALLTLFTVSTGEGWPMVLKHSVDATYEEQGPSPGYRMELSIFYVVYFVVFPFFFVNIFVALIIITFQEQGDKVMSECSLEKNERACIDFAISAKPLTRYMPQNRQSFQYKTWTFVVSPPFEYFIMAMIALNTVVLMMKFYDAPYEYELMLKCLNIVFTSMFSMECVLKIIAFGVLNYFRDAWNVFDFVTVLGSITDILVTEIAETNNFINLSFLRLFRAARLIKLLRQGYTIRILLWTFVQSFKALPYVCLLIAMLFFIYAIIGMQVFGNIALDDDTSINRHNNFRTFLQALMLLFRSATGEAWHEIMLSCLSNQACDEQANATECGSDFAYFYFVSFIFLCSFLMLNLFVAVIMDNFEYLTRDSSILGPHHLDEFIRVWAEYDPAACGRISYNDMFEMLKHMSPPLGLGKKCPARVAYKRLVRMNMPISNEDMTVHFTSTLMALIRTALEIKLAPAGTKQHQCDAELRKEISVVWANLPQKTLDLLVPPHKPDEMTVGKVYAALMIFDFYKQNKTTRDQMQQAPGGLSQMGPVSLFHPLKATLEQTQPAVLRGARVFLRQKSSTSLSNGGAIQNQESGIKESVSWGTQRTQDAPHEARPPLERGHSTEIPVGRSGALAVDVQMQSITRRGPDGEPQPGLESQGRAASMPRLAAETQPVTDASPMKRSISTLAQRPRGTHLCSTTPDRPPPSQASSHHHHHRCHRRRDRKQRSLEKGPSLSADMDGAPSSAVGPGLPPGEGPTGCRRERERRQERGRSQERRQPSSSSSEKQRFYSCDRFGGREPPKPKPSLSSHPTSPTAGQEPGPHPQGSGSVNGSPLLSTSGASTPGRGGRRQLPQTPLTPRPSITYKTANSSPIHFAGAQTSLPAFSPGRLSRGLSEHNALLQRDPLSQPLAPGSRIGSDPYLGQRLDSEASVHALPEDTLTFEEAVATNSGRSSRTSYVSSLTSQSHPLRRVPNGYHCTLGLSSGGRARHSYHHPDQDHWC
T2 sequence (Q02410 whole entry): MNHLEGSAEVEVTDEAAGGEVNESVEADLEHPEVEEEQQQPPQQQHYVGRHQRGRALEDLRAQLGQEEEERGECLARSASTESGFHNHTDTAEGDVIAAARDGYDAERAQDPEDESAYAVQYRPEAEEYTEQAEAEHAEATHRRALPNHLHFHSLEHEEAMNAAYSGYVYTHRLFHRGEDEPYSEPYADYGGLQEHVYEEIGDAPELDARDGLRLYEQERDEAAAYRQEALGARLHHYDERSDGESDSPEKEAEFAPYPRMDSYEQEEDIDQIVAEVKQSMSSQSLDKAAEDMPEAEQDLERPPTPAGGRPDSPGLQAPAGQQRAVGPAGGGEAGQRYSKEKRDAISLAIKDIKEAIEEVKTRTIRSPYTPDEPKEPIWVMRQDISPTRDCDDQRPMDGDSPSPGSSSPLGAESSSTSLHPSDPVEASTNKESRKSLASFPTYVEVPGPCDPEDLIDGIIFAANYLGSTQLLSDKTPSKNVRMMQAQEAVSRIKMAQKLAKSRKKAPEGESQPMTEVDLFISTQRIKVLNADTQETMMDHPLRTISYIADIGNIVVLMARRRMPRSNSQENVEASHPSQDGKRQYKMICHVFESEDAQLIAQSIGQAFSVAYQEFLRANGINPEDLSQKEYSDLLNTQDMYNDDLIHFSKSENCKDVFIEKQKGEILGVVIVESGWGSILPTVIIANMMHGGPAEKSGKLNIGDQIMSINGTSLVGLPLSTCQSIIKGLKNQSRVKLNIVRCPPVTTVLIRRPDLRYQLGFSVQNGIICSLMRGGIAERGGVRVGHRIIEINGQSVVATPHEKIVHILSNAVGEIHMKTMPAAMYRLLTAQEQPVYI
Sequence of Photoreceptor-specific nuclear receptor (Q9Y5X4 whole entry, the tested form may be a part): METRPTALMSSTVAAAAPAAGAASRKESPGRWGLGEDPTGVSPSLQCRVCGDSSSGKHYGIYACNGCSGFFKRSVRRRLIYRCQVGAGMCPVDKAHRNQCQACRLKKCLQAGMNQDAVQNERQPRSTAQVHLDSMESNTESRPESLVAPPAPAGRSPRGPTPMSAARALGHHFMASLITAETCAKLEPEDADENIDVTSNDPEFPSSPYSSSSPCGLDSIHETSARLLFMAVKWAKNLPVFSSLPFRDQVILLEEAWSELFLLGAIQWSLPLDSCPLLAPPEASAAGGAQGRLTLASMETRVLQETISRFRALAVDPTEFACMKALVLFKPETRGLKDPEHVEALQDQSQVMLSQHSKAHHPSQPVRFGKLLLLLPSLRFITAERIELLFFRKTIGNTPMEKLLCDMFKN
Sequence of Paired box protein Pax-8 (Q06710 whole entry): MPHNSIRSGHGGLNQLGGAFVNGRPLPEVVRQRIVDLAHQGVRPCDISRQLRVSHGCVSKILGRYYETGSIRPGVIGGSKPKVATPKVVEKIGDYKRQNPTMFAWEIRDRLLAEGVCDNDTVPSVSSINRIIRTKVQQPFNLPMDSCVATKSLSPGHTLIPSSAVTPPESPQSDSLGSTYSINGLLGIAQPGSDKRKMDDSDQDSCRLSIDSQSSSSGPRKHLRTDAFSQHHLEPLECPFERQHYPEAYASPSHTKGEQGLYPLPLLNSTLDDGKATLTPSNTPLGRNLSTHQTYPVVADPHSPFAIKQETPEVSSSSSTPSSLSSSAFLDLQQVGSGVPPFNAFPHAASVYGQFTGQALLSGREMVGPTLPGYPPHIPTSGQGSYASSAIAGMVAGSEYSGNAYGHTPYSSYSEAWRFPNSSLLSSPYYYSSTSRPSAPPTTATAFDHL

SMILES: CC(=O)Nc1ccc(Sc2ccc([N+](=O)[O-])o2)cc1
- AC50 [1]: 2.15 µM (active)
- AC50 [2]: 20.6 µM (active)
- AC50 (Paired box protein Pax-8): 7.36 µM (active)
- AC50 [3]: 7.13 µM (active)
- AC50 [4]: 11.2 µM (active)
- AC50 [5]: 13.8 µM (active)
- IC50 (Beta-galactosidase): > 66.6 µM (inactive)
- IC50 [6]: 2.72 µM (active)
- AC50 [7]: 26.4 µM (active)
- AC50 [8]: 22.7 µM (active)
- AC50 [9]: 37 µM (active)
- IC50 [10]: > 66.6 µM (inactive)

- IC50 [11]: 35.4 µM (active)
- IC50 [12]: > 50 µM (inactive)
SMILES: COC(=O)c1ccc(/C=C2/SC(=S)N(CCCC(=O)Nc3ccc(O)cc3)C2=O)cc1

- AC50 (CAAX prenyl protease 2): 22.8 µM (active)
SMILES: CC1CCN(C(=O)C2CCN(S(=O)(=O)c3ccc(-n4cnnn4)cc3)CC2)CC1

SMILES: CC(=O)O/C(=C1\CC2C3CC=C4CC(OC(C)=O)CCC4(C)C3CCC2(C)C1=O)C(F)(F)F (configuration not stated)
- IC50 (Beta-galactosidase): > 66.6 µM (inactive)
- IC50 [10]: > 66.6 µM (inactive)

- IC50 (Aminopeptidase N): 107 µM (active)
SMILES: Fc1ccc(N2N=C(c3cccs3)CC2c2ccco2)c(F)c1 (configuration not stated)

SMILES: Cc1ccc(C(=O)Nc2cc(Cl)ccc2C(=O)O)cc1C
- IC50 (Hexokinase): 10.7 µM (active)

- IC50 (Aminopeptidase N): 39.3 µM (active)
SMILES: CNC(=O)c1nc[nH]c1C(=O)N[C@@H](CC(C)C)C(=O)OC(C)(C)C

SMILES: O=C(Nc1cc(Cl)ccc1C(=O)O)c1ccc2ccccc2c1
- IC50 (Hexokinase): 5.41 µM (active)

SMILES: CN(Cc1ccccc1)C(=O)Cn1sc2ccccc2c1=O
- IC50 (Hexokinase): 7.87 µM (active)
